Measurements as given in US12673954B2 (BRISTOL-MYERS SQUIBB COMPANY, priority 2021, dated 2026).
Read-outs that look alike come from different tables or passages of the source.

Assays:
[1] = system: NF-κB pathway, THP1-Dual™ cells; assay: STING reporter assay in THP1-Dual cells, NF-κB pathway (SEAP, QUANTI-Blue); assay type: cell-based, human; details: THP1-Dual cells, 10% human plasma, 20 hours, SEAP, 100% activation = 100 μM cGAMP, read-out: NFkB (EC50 μM)
Procedure, shortened: (§1)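 Activation normalised between DMSO-only baseline and 100 μM cGAMP maximum, after 20 h compound exposure (starting at 100 μM final) at 37° C, 5% CO2. Supernatant SEAP (QUANTI-Blue, OD620) reports NF-κB; secreted luciferase (QUANTI-Luc, RLU at 5 min) reports IRF.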

[2] = system: IRF pathway, THP1-Dual™ cells; assay: STING reporter assay in THP1-Dual cells, IRF pathway (Lucia luciferase, QUANTI-Luc); assay type: cell-based, human; details: THP1-Dual cells, 10% human plasma, 20 hours, Lucia luciferase, 100% activation = 100 μM cGAMP, read-out: IRF (EC50 μM)
Procedure, shortened: as §1

| EC50 ([1]; Homo sapiens, THP1-Dual, 20 h) [µM] | EC50 ([2]; Homo sapiens, THP1-Dual, 20 h) [µM] | EC50 [1] [µM] | EC50 [2] [µM] | Structure (SMILES) |
| --- | --- | --- | --- | --- |
| 1.3 | > 33 |  |  | COC(=O)c1cc(F)cc2cc(CNC(=O)c3cnc4cccnn34)oc12 [EXAMPLE 41, Methyl 5-fluoro-2-((imidazo[1,2-b]pyridazine-3-carboxamido)methyl)benzofuran-7-carboxylate] |
| 18 | 13 |  |  | O=C(OCC(F)(F)F)c1ccc(F)c2cc(Cn3cnc4ccncc4c3=O)oc12 [EXAMPLE 356] |
| 1.5 | 1.2 |  |  | COC(=O)c1cc(C)cc2cc(CNC(=O)c3cncc4[nH]cnc34)oc12 [Example 91, Methyl 2-((3H-imidazo[4,5-c]pyridine-7-carboxamido)methyl)-5-methylbenzofuran-7-carboxylate] |
| 0.95 | 0.93 |  |  | O=C(OCC(F)(F)F)c1cc(F)cc2cc(CNC(=O)c3cnc4cccnn34)oc12 [EXAMPLE 230, 2,2,2-Trifluoroethyl 5-fluoro-2-((imidazo[1,2-b]pyridazine-3-carboxamido)methyl)benzofuran-7-carboxylate] |
|  |  | 1.4 | 1.7 | CC(NC(=O)c1cnn2cccnc12)c1cc2cc(F)cc(C(=O)O[C@H](C)C(F)(F)F)c2o1 (stereo partly drawn) [EXAMPLE 325, (R)-1,1,1-Trifluoropropan-2-yl 5-fluoro-2-(1-(pyrazolo[1,5-a]pyrimidine-3-carboxamido)ethyl)benzofuran-7-carboxylate] |
| 1.7 | 1.7 |  |  | O=C(NCc1cc2cc(Cl)cc(C(=O)OCC(F)(F)F)c2o1)c1cncc2[nH]cnc12 [EXAMPLE 264, 2,2,2-Trifluoroethyl 2-((3H-imidazo[4,5-c]pyridine-7-carboxamido)methyl)-5-chlorobenzofuran-7-carboxylate] |
| 25 | 35 |  |  | Cc1cc(CC(=O)O[C@H](C)C(F)(F)F)c2oc(CNC(=O)c3cnn4cccnc34)cc2c1 [EXAMPLE 279, (R)-1,1,1-Trifluoropropan-2-yl 2-(5-methyl-2-((pyrazolo[1,5-a]pyrimidine-3-carboxamido)methyl)benzofuran-7-yl)acetate] |
| 0.82 | 1 |  |  | CCOC(=O)OCOC(=O)c1cc(Cl)cc2cc(CNC(=O)c3cnn4cccnc34)oc12 [EXAMPLE 260, ((Ethoxycarbonyl)oxy)methyl 5-chloro-2-((pyrazolo[1,5-a]pyrimidine-3-carboxamido)methyl)benzofuran-7-carboxylate] |
| 3.3 | 3.6 |  |  | C[C@H](NC(=O)c1cnn2cccnc12)c1oc2c(C(=O)OC3COC3)cc(Cl)cc2c1Cl [EXAMPLE 298, Oxetan-3-yl (S)-3,5-dichloro-2-(1-(pyrazolo[1,5-a]pyrimidine-3-carboxamido)ethyl)benzofuran-7-carboxylate] |
|  |  | 54 | 17 | CC(OC(=O)c1cc(C(F)(F)F)cc2cc(CNC(=O)c3cnn4cccnc34)oc12)C(F)(F)F (single isomer, unassigned) [EXAMPLE 350, 1,1,1-Trifluoropropan-2-yl 2-((pyrazolo[1,5-a]pyrimidine-3-carboxamido)methyl)-5-(trifluoromethyl)benzofuran-7-carboxylate] |
| 98 | 73 |  |  | O=C(OC1CNC1)c1cc(Cl)cc2cc(CNC(=O)c3cnn4cccnc34)oc12 [EXAMPLE 248, Azetidin-3-yl 5-chloro-2-((pyrazolo[1,5-a]pyrimidine-3-carboxamido)methyl)benzofuran-7-carboxylate] |
| 2.8 | 2.5 |  |  | O=C(OCC(F)(F)F)c1cc(Cl)cc2cc(Cn3cnc4ccncc4c3=O)oc12 [EXAMPLE 371, 2,2,2-Trifluoroethyl 5-chloro-2-((4-oxopyrido[4,3-d]pyrimidin-3(4H)-yl)methyl)benzofuran-7-carboxylate] |
